We go through five compounds from patent US9527885B2, “Hepatitis C virus inhibitors” (BRISTOL-MYERS SQUIBB COMPANY, priority 2011, dated 2016).

Assay [1] has as its system HCV genotype 1a (H77 strain) replicon in HUH-7 cells. Description: HCV replicon luciferase reporter assay, genotype 1a. It is filed as cell-based. Particulars: Hepatitis C virus, Huh-7, 72 h, HCV genotype 1a replicon luciferase, 3 days incubation, read-out: LE_1a (EC50, range). Put shortly:
(§1)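 Twenty-point, threefold compound titrations (0.5% DMSO) were incubated 3 days at 37 °C with 3.0×10^3 HUH-7 cells/well in 4% FCS. The cells stably carried luciferase replicons: genotype 1b Con1 (S1179I) or 1a H77 (NS3 P1496L, NS5A S2204I). Renilla signal was read after 2 h with 7.5 μM EnduRen, and EC50 was taken from a four-parameter logistic fit. Cytotoxicity (CC50) was measured by Cell Titer-Blue, 8 h.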

Assay [2] deals with HCV genotype 1b (Con1) replicon in HUH-7 cells. As to the kind of experiment: HCV replicon luciferase reporter assay, genotype 1b. Type of assay: cell-based. Particulars: Hepatitis C virus, 72 h, HCV genotype 1b replicon luciferase, 3 days incubation, read-out: LE_1b (EC50, range). In a few lines: as §1
In general terms: Replicon systems follow genome replication, usually without infectious particles.

Like-named read-outs stand apart in the source and are kept apart here.

Usually EC50 stands for the midpoint of the concentration-response curve. For `C[C@H]1CC/C=C\[C@@H]2C[C@@]2(C(=O)NS(=O)(=O)C2CC2)NC(=O)[C@@H]2C[C@@H](Oc3nccc4c5c(ccc34)OC(F)(F)O5)CN2C(=O)[C@@H](NC(=O)O[C@@H]2C[C@@H]3C[C@@H]3C2)[C@H](C)C1` [Compound 5273, (1R,3r,5S)-bicyclo[3.1.0]hexan-3-yl ((2R,6S,7R,9S,13aS,14aR,16aS,Z)-14a-((cyclopropylsulfonyl)carbamoyl)-2-((2,2-difluoro-[1,3]dioxolo[4,5-f]isoquinolin-6-yl)oxy)-7,9-dimethyl-5,16-dioxo-1,2,3,5,6,7,8,9,10,11,13a,14,14a,15,16,16a-hexadecahydrocyclopropa[e]pyrrolo[1,2-a][1,4]diazacyclopentadecin-6-yl)carbamate], the EC50 in assay [1] (range class) and in assay [2] (range class) was 4.82 to 103 nM each time.
For `COc1ccc(-c2nc(O[C@@H]3C[C@H]4C(=O)N[C@]5(C(=O)NS(=O)(=O)C6CC6)C[C@@H]5/C=C\CC[C@@H](C)C[C@@H](C)[C@H](NC(=O)OC(C)(C)C)C(=O)N4C3)c3ccc(OC)cc3n2)cc1` [Compound 5002, tert-butyl ((2R,6S,7R,9R,13aR,14aR,16aS,Z)-14a-((cyclopropylsulfonyl)carbamoyl)-2-((7-methoxy-2-(4-methoxyphenyl)quinazolin-4-yl)oxy)-7,9-dimethyl-5,16-dioxo-1,2,3,5,6,7,8,9,10,11,13a,14,14a,15,16,16a-hexadecahydrocyclopropa[e]pyrrolo[1,2-a][1,4]diazacyclopentadecin-6-yl)carbamate], the EC50 in assay [1] (class symbols) and in assay [2] (class symbols) was under 5.46 nM throughout.
On to `[2H]C([2H])([2H])C(OC(=O)N[C@@H]1C(=O)N2C[C@H](Oc3nccc4cc(OC)ccc34)C[C@H]2C(=O)N[C@]2(C(=O)NS(=O)(=O)C3(C)CC3)C[C@H]2/C=C\CC[C@H](C)C[C@H]1C)(C([2H])([2H])[2H])C(F)(F)F` [Compound 5174, 1,1,1,3,3,3-hexadeutero-2-(trifluoromethyl)propan-2-yl ((2R,6S,7R,9S,13aS,14aR,16aS,Z)-2-((6-methoxyisoquinolin-1-yl)oxy)-7,9-dimethyl-14a-(((1-methylcyclopropyl)sulfonyl)carbamoyl)-5,16-dioxo-1,2,3,5,6,7,8,9,10,11,13a,14,14a,15,16,16a-hexadecahydrocyclopropa[e]pyrrolo[1,2-a][1,4]diazacyclopentadecin-6-yl)carbamate], for which the EC50 in assay [1] (range class) and in assay [2] (range class) was under 5.46 nM in each case.
`C[C@@H]1CC/C=C\[C@@H]2C[C@@]2(C(=O)NS(=O)(=O)C2(CF)CC2)NC(=O)[C@@H]2C[C@@H](Oc3nccc4c5c(ccc34)OCCO5)CN2C(=O)[C@@H](NC(=O)OC(C)(C)C)[C@H](C)C1` [Compound 5321, tert-butyl ((2R,6S,7R,9R,13aS,14aR,16aS,Z)-2-((2,3-dihydro-[1,4]dioxino[2,3-f]isoquinolin-7-yl)oxy)-14a-(((1-(fluoromethyl)cyclopropyl)sulfonyl)carbamoyl)-7,9-dimethyl-5,16-dioxo-1,2,3,5,6,7,8,9,10,11,13a,14,14a,15,16,16a-hexadecahydrocyclopropa[e]pyrrolo[1,2-a][1,4]diazacyclopentadecin-6-yl)carbamate]: the 50% effective concentration (EC50) in assay [1] (range class) and in assay [2] (range class) was under 5.46 nM throughout.
Take `COc1ccc2c(O[C@@H]3C[C@H]4C(=O)N[C@]5(C(=O)NS(=O)(=O)C6(C)CC6)C[C@H]5/C=C\CC[C@@H](C)C[C@@H](C)[C@H](NC(=O)OC(C)(C)C)C(=O)N4C3)ncc(N3CCN(S(C)(=O)=O)CC3)c2c1` [Compound 4121, tert-butyl (2R,6S,7R,9R,13aS,14aR,16aS,Z)-2-(6-methoxy-4-(4-(methylsulfonyl)piperazin-1-yl)isoquinolin-1-yloxy)-7,9-dimethyl-14a-(1-methylcyclopropylsulfonylcarbamoyl)-5,16-dioxo-1,2,3,5,6,7,8,9,10,11,13a,14,14a,15,16,16a-hexadecahydrocyclopropa[e]pyrrolo[1,2-a][1,4]diazacyclopentadecin-6-ylcarbamate]: the EC50 in assay [1] (class symbols) and in assay [2] (class symbols) was under 5.46 nM each time.
